The numbers were not newly measured in patent US9682072B2, “Compositions and methods for treatment of lung dysfunction” (Children's Hospital Medical Center, priority 2015, dated 2017), which cites them from elsewhere.

One series concerns the target T1, FOXM1 (Homo sapiens, UniProt Q08050).
T1 sequence (Q08050 1-763): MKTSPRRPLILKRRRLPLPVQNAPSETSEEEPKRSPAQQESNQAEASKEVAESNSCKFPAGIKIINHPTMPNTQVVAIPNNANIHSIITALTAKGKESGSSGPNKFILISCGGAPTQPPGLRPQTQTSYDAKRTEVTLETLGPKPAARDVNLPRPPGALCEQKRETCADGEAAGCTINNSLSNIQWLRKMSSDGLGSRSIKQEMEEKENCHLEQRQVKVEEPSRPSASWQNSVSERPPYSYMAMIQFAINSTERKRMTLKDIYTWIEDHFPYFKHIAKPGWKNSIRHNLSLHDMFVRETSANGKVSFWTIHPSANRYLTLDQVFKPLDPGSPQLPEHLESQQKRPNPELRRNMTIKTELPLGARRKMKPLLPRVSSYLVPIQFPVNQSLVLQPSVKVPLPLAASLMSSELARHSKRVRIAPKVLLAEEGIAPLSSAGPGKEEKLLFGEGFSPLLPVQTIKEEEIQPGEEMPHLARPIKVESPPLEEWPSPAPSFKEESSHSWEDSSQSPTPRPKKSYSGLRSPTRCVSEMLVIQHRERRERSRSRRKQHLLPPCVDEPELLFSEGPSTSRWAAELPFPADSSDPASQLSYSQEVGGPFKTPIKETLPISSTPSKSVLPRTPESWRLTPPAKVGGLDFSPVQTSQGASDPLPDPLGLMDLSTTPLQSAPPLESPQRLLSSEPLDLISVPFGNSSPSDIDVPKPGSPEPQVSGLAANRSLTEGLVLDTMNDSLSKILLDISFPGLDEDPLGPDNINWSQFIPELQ

The subject of series [1] is ovalbumin-induced lung inflammation. The settings on record: mouse, in vivo.

Consider `Nc1c(C(=O)Nc2ccc(F)cc2)sc2nc(-c3cccs3)cc(C(F)(F)F)c12` [FDI-6], for which the “binding of FOXM1 to its target DNA” value on FOXM1 is reported as “inhibits”.

As to `N#CC(=C(/N)Sc1ccccc1N)/C(C#N)=C(\N)Sc1ccccc1N` [Compound U0126], the ovalbumin-induced lung inflammation result in series [1] was “diminished”.
